Laboratory results: article PMC11784839, “Monoaminergic neurotransmitters are bimodal effectors of tau aggregation” (Science Advances, 2025)

Target: tau (Homo sapiens, UniProt P10636)
Experiment: MCE Phenols Library screening, tau biosensor cell seeding assay (AvZ)
Format: cell-based
Settings: for Z repl 1 / Z Repl 2: Z score; for Z repl 1 / raw data 1: replicate 1; for Z Repl 2 / raw data 2: replicate 2; for AvZ (average z score of seeding, SDs from the mean level of seeding): 10 μM phenol in cell cultures, AD brain homogenate preincubated 16 hours, two biological replicates, positive = catalyzes seeding, negative = inhibits
[1] = average Z score of the two replicates, MCE Phenols Library screen
[2] = average puncta of the two replicates
[3] = average Z score of the two replicates, tau seeding
[4] = average Z score of two replicates, Phenols Library screen

Chain of tau (P10636 623-695 limits assumed): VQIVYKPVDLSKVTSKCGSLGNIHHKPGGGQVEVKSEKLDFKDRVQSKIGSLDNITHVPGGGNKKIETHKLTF

| SMILES | Z repl 1 | Z Repl 2 | av Z [1] | av puncta (average of raw data 1 and 2) | raw data 1 (puncta) | raw data 2 (puncta) | av puncta [2] | av Z [3] | AvZ (average z score of seeding, SDs from the mean level of seeding) | av Z [4] | raw data 1 (raw puncta) | raw data 2 (raw puncta) |
| --- | --- | --- | --- | --- | --- | --- | --- | --- | --- | --- | --- | --- |
| OC[C@H]1O[C@@H](Oc2cc3c(O)cc(O)cc3[o+]c2-c2ccc(O)c(O)c2)[C@H](O)[C@@H](O)[C@H]1O.[Cl-] [Cyanidin-3-O-galactoside (chloride)] | -1.814 | -0.88 | -1.347 | 3972.36 | 4573.89 | 3370.84 |  |  |  |  |  |  |
| O=c1c(O[C@@H]2O[C@H](CO)[C@@H](O)[C@H](O)[C@H]2O)c(-c2ccc(O)c(O)c2)oc2cc(O[C@@H]3O[C@H](CO[C@@H]4O[C@H](CO)[C@@H](O)[C@H](O)[C@H]4O)[C@@H](O)[C@H](O)[C@H]3O)cc(O)c12 | -0.562 | -0.434 | -0.498 |  | 19599.6 | 8130.05 | 13864.9 |  |  |  |  |  |
| COc1c(O)cc2oc(-c3ccc(O)c(O)c3)cc(=O)c2c1O [Nepetin] | -0.728 | -0.807 | -0.768 | 10877.8 | 17608.6 | 4146.93 |  |  |  |  |  |  |
| COc1ccc2c(c1)OC[C@@H](c1cc(O)c(OC)c(OC)c1O)C2 [Colutehydroquinone] | 0.366 | 0.999 |  | 27089.5 | 30747.2 | 23431.8 |  | 0.683 |  |  |  |  |
| Oc1ccc2c(c1)OCO2 [Sesamol] | -0.018 | -1.03 | -0.524 |  | 26133.2 | 1763.04 | 13948.1 |  |  |  |  |  |
| O=C1c2ccccc2C(=O)c2c1ccc(O)c2O [Alizarin] | -0.67 | -0.047 | -0.359 |  |  |  | 15284.3 |  |  |  | 18305.8 | 12262.8 |
| O=C(/C=C/c1ccc(O)c(O)c1)O[C@@H](C(=O)O)[C@@H](O)C(=O)O [Caftaric acid] | -0.317 | -0.61 |  |  | 22545.7 | 6248.57 | 14397.2 |  | -0.464 |  |  |  |
| O=C(O)C[C@H](C(=O)O)[C@H]1c2c(cc(O)c(O)c2O)C(=O)O[C@@H]1C(=O)O [Chebulic acid] | -1.01 |  | -1.092 | 7230.09 | 14229.4 | 230.797 |  |  |  |  |  |  |
| CCCCCCCCCCCCCCCc1cccc(O)c1C(=O)O [Anacardic Acid] | 0.086 | -0.324 |  | 18346.5 | 27383.8 | 9309.16 |  |  | -0.119 |  |  |  |
| CC[C@H]1CN2CCc3cc(OC)c(OC)cc3[C@@H]2C[C@@H]1C[C@H]1NCCc2cc(O)c(OC)cc21.Cl.Cl [Cephaeline (dihydrochloride)] | -0.202 | -0.66 | -0.431 |  |  |  | 14823.1 |  |  |  | 23925.6 | 5720.59 |
| COc1cc2c(cc1O)-c1c(OC)c(O)cc3c1[C@H](C2)NCC3 [Laetanine] | -0.508 | -0.181 | -0.344 |  |  |  | 15544.8 |  |  |  | 20251.6 | 10838.1 |
| OC[C@H]1O[C@@H](Oc2ccc(O)cc2)[C@H](O)[C@@H](O)[C@@H]1O [Arbutin] | -0.665 | 0.333 |  | 17341.3 | 18360 | 16322.6 |  |  |  | -0.166 |  |  |
| OC[C@H]1O[C@@H](Oc2cc3c(O)cc(O)cc3[o+]c2-c2ccc(O)c(O)c2)[C@H](O)[C@@H](O)[C@@H]1O.[Cl-] [Kuromanin (chloride)] | -0.084 | -0.888 | -0.486 |  | 25345.8 | 3284.04 | 14314.9 |  |  |  |  |  |
| CC(=O)N[C@@H](Cc1ccc(O)cc1)C(=O)O [N-Acetyl-L-tyrosine] | -0.073 | -0.875 |  |  | 25475.6 | 3423.63 | 14449.6 |  | -0.474 |  |  |  |
| Oc1ccc(OC2CCCCO2)cc1 (stereo not shown) [Deoxyarbutin] | 0.557 | -0.129 |  | 22209.6 | 33032.9 | 11386.3 |  | 0.214 |  |  |  |  |
| O=C1C[C@@H](c2ccc(O)cc2)Oc2cc(O[C@@H]3O[C@H](CO)[C@@H](O)[C@H](O)[C@H]3O)cc(O)c21 [Prunin] | -0.134 | 0.469 |  | 21257.9 | 24743.3 | 17772.6 |  | 0.168 |  |  |  |  |
| COc1cc(O)cc(/C=C/c2ccc(O)cc2)c1 [Pinostilbene] | 0.091 | -0.704 | -0.306 |  |  |  | 16345.6 |  |  |  | 27446.2 | 5245.02 |
| CC(C)=CCc1cc2c(cc1O)O[C@H](c1ccc(O)cc1)CC2=O [Bavachin] | -0.343 | -0.767 | -0.555 |  | 22229.8 | 4573.9 | 13401.9 |  |  |  |  |  |
| O=C(/C=C/c1ccccc1)c1ccc(O)cc1 [4'-Hydroxychalcone] | 0.138 | 0.314 |  | 22065.5 | 28009.6 | 16121.4 |  | 0.226 |  |  |  |  |

More lines, main results first:

| Z repl 1 | Z Repl 2 | av Z [1] | av puncta (average of raw data 1 and 2) | raw data 1 (puncta) | raw data 2 (puncta) | av puncta [2] | av Z [3] | AvZ (average z score of seeding, SDs from the mean level of seeding) | av Z [4] | SMILES | raw data 1 (raw puncta) | raw data 2 (raw puncta) |
| --- | --- | --- | --- | --- | --- | --- | --- | --- | --- | --- | --- | --- |
| -0.003 | -1.049 |  |  | 26308.5 | 1565.31 | 13936.9 |  |  |  | CC(=O)OCCc1ccc(O)c(O)c1 [Hydroxytyrosol acetate] |  |  |
| -0.876 | -0.134 | -0.505 |  | 15835.9 | 11333.2 | 13584.6 |  |  |  | CC(C)=CCc1cc(C(=O)/C=C/c2ccc(O)cc2)c(O)cc1O [Bavachalcone] |  |  |
| 0.168 | -0.833 |  |  |  |  | 16119 |  | -0.332 |  | COc1cc(/C=C/C(=O)OC(C)C)ccc1O [Isopropyl ferulate] | 28366.5 | 3871.42 |
| -1.341 | -0.32 |  | 9796.98 | 10246.8 | 9347.15 |  |  | -0.831 |  | O=C(O)Cc1ccccc1O [2-Hydroxyphenylacetic acid] |  |  |
| -0.056 | -0.658 | -0.357 |  |  |  | 15704.2 |  |  |  | O=C(O)Cc1cc(O)ccc1O[C@@H]1O[C@H](CO)[C@@H](O)[C@H](O)[C@H]1O [Phaseoloidin] | 25674.3 | 5734.06 |
| -0.244 | 0.385 |  | 20147.8 | 23421.7 | 16873.8 |  |  | 0.07 |  | NCCc1ccc(O)cc1 [Tyramine] |  |  |
| -0.342 | -0.568 | -0.455 |  | 22246.4 | 6703.04 | 14474.7 |  |  |  | C[C@@H]1O[C@@H](OC[C@H]2O[C@@H](Oc3c(-c4ccc(OCCO)c(OCCO)c4)oc4cc(OCCO)cc(O)c4c3=O)[C@H](O)[C@@H](O)[C@@H]2O)[C@H](O)[C@H](O)[C@H]1O [Troxerutin] |  |  |
| -0.164 | -0.982 | -0.573 |  | 24381.7 | 2282.35 | 13332 |  |  |  | O=c1cc(-c2ccccc2)oc2cc(O[C@@H]3O[C@H](CO[C@@H]4O[C@H](CO)[C@@H](O)[C@H](O)[C@H]4O)[C@@H](O)[C@H](O)[C@H]3O)c(O)c(O)c12 [Oroxin B] |  |  |
| 0.583 | 0.288 |  | 24597.1 | 33348.4 | 15845.8 |  | 0.436 |  |  | COc1ccc(-c2cc(=O)c3c(O)c(OC)c(O)cc3o2)cc1OC [Eupatilin] |  |  |
| -1.155 | -0.185 |  |  | 12482.9 | 10795.4 | 11639.1 |  | -0.67 |  | COc1cc(C(C)=O)ccc1O [Apocynin] |  |  |
| 0.055 | -0.946 | -0.446 |  |  |  | 14831.1 |  |  |  | O=C1c2ccccc2C(=O)c2c(O)c(O)cc(O)c21 [Purpurin] | 27004.8 | 2657.32 |
| -0.241 | -0.521 | -0.381 |  |  |  | 15329.6 |  |  |  | COC(=O)[C@@H](Cc1ccc(O)c(O)c1)OC(=O)/C=C/c1ccc(O)c(O)c1 [Methyl rosmarinate] | 23459.6 | 7199.56 |
| -0.147 | 0.084 |  | 19127 | 24585.9 | 13668.2 |  |  |  | -0.031 | O=C1c2c(O)cc(O)cc2O[C@H](c2ccc(O)cc2)[C@H]1O [Dihydrokaempferol] |  |  |
| 0.624 | 0.805 |  | 27603.9 | 33843.5 | 21364.3 |  | 0.715 |  |  | CC1(C)C=Cc2c(ccc3c2OC[C@@H](c2ccc(O)cc2O)C3)O1 [Glabridin] |  |  |
